According to patent EP4818168A1, “FUSED RING COMPOUND, PHARMACEUTICAL COMPOSITION THEREOF AND USE THEREOF” (priority 2023, dated 2025):
Where two headings read alike, the source gives them in different places.

Tests used:
AURKA = target: T1, AURKA (Homo sapiens, UniProt O14965); type: cell-based
T1 construct: endogenous in cells; host or cells: Jurkat cells
T1 sequence (O14965 1-403): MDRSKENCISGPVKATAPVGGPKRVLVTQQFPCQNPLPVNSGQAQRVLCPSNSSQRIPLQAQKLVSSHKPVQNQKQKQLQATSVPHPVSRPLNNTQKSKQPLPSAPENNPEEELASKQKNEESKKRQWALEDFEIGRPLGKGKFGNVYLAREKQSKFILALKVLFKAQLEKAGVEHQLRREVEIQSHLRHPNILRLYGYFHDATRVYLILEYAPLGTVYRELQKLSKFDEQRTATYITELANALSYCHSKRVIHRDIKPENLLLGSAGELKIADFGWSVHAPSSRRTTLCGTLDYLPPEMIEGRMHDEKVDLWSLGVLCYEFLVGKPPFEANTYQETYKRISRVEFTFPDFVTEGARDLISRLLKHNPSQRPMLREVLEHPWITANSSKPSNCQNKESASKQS
How it was run: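 Jurkat cells seeded at 1×10^6 cells/500 µL and treated with compound; lysates run on SDS-PAGE, blotted to nitrocellulose and probed overnight at 4°C for AURKA. Chemiluminescent or fluorescent band intensity fitted to a curve to give DC50 for protein degradation.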

H82 cells = experiment: cells; type: cell-based; conditions: Homo sapiens
How it was run: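 H82 cells in RPMI1640 + 10% FBS exposed to compound (0.1% DMSO final) for 6 days at 37 °C, 5% CO2. Viability read by CellTiter-Glo ATP luminescence, normalised to DMSO and medium controls; IC50 from nonlinear regression of the dose–survival curve.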

[1] = 100 nM compound, Jurkat cells, 24 h, Table 2
[2] = 1 µM compound, Jurkat cells, 24 h, Table 2
[3] = NCI-H82, H82 cells, 4000 cells/well, CellTiter-Glo, read-out: IC50 in H82 Cells
[4] = NCI-H82, read-out: IC50 in H82 Cells

Compound: CN1CCN(CC2CCN(c3cccc(N4CCC(=O)NC4=O)c3)CC2)Cc2cc(Nc3ncc4c(n3)-c3ccc(Cl)cc3C(c3c(F)cccc3F)=NC4)ccc21 [Compound A239]
- Percentage of AURKA Degradation Induced by 100 nM Compound in Jurkat Cells (AURKA; [1]): +++ (Degradation > 70%)
- Percentage of AURKA Degradation Induced by 1 µM Compound in Jurkat Cells (AURKA; [2]): +++ (Degradation > 70%)
- IC50 (H82 cells; [3]): < 1000 nM

Compound: O=C1CCN(c2cccc(N3CCC(CN4CCOc5ccc(Nc6ncc7c(n6)-c6ccc(Cl)cc6C(c6c(F)cccc6F)=NC7)cc5C4)CC3)c2)C(=O)N1 [Compound A240]
- Percentage of AURKA Degradation Induced by 100 nM Compound in Jurkat Cells (AURKA; [1]): +++ (Degradation > 70%)
- Percentage of AURKA Degradation Induced by 1 µM Compound in Jurkat Cells (AURKA; [2]): +++ (Degradation > 70%)
- IC50 (H82 cells; [3]): < 1000 nM

Compound: O=C1CCN(c2ccc(N3CCN(C(=O)C4CCN(C56CC(Nc7ncc8c(n7)-c7ccc(Cl)cc7C(c7c(F)cccc7F)=NC8)(C5)C6)CC4)CC3)nc2)C(=O)N1 [Compound A243]
- Percentage of AURKA Degradation Induced by 100 nM Compound in Jurkat Cells (AURKA; [1]): +++ (Degradation > 70%)
- Percentage of AURKA Degradation Induced by 1 µM Compound in Jurkat Cells (AURKA; [2]): +++ (Degradation > 70%)
- IC50 (H82 cells; [3]): < 1000 nM

Compound: Cn1nc(N2CCC(=O)NC2=O)c2cc(F)c(N3CCN(C4CN(c5cccc(Nc6ncc7c(n6)-c6ccc(Cl)cc6C(c6c(F)cccc6F)=NC7)c5)C4)CC3)cc21 [Compound A244]
- Percentage of AURKA Degradation Induced by 100 nM Compound in Jurkat Cells (AURKA; [1]): ++ (30% < Degradation ≤ 70%)
- Percentage of AURKA Degradation Induced by 1 µM Compound in Jurkat Cells (AURKA; [2]): +++ (Degradation > 70%)
- IC50 (H82 cells; [3]): < 1000 nM

Compound: Cn1nc(N2CCC(=O)NC2=O)c2cc(F)c(N3CCN(CC4CN(c5cccc(Nc6ncc7c(n6)-c6ccc(Cl)cc6C(c6c(F)cccc6F)=NC7)c5)C4)CC3)cc21 [Compound A245]
- Percentage of AURKA Degradation Induced by 100 nM Compound in Jurkat Cells (AURKA; [1]): +++ (Degradation > 70%)
- Percentage of AURKA Degradation Induced by 1 µM Compound in Jurkat Cells (AURKA; [2]): +++ (Degradation > 70%)
- IC50 (H82 cells; [3]): < 1000 nM

Compound: O=C1CCN(c2ccc(N3CCN(CC4CN(c5ccc(Nc6ncc7c(n6)-c6ccc(Cl)cc6C(c6c(F)cccc6F)=NC7)cn5)C4)CC3)nc2)C(=O)N1 [Compound A248]
- Percentage of AURKA Degradation Induced by 100 nM Compound in Jurkat Cells (AURKA; [1]): +++ (Degradation > 70%)
- Percentage of AURKA Degradation Induced by 1 µM Compound in Jurkat Cells (AURKA; [2]): +++ (Degradation > 70%)
- IC50 (H82 cells; [3]): < 1000 nM

Compound: O=C1CCN(c2ccc(C3CCN(CC4CN(c5ccc(Nc6ncc7c(n6)-c6ccc(Cl)cc6C(c6c(F)cccc6F)=NC7)cc5)C4)CC3)nc2)C(=O)N1 [Compound A249]
- Percentage of AURKA Degradation Induced by 100 nM Compound in Jurkat Cells (AURKA; [1]): +++ (Degradation > 70%)
- Percentage of AURKA Degradation Induced by 1 µM Compound in Jurkat Cells (AURKA; [2]): +++ (Degradation > 70%)
- IC50 (H82 cells; [3]): < 1000 nM

Compound: O=C1CCN(c2ccc(N3CCC(CN4CCN(C56CC(Nc7ncc8c(n7)-c7ccc(Cl)cc7C(c7c(F)cccc7F)=NC8)(C5)C6)C(=O)C4)CC3)nc2)C(=O)N1 [Compound A250]
- Percentage of AURKA Degradation Induced by 100 nM Compound in Jurkat Cells (AURKA; [1]): +++ (Degradation > 70%)
- Percentage of AURKA Degradation Induced by 1 µM Compound in Jurkat Cells (AURKA; [2]): +++ (Degradation > 70%)
- IC50 (H82 cells; [3]): < 1000 nM

Compound: N#CC1CN(C2CCN(c3ccc(N4CCC(=O)NC4=O)cn3)CC2)CCN1c1ccc(Nc2ncc3c(n2)-c2ccc(Cl)cc2C(c2c(F)cccc2F)=NC3)cc1 (stereo not drawn) [Compound A251]
- Percentage of AURKA Degradation Induced by 100 nM Compound in Jurkat Cells (AURKA; [1]): +++ (Degradation > 70%)
- Percentage of AURKA Degradation Induced by 1 µM Compound in Jurkat Cells (AURKA; [2]): +++ (Degradation > 70%)
- IC50 (H82 cells; [3]): < 1000 nM

Compound: O=C1CCN(c2ccc(N3CCN(C4(C5CN(c6ccc(Nc7ncc8c(n7)-c7ccc(Cl)cc7C(c7c(F)cccc7F)=NC8)cc6)C5)CC4)CC3)nc2)C(=O)N1 [Compound A252]
- Percentage of AURKA Degradation Induced by 100 nM Compound in Jurkat Cells (AURKA; [1]): +++ (Degradation > 70%)
- Percentage of AURKA Degradation Induced by 1 µM Compound in Jurkat Cells (AURKA; [2]): +++ (Degradation > 70%)
- IC50 (H82 cells; [3]): < 1000 nM

Compound: COc1cccc(F)c1C1=NCc2cnc(Nc3ccc(N4CC(CN5CCN(c6ccc(N7CCC(=O)NC7=O)cn6)CC5)C4)cc3)nc2-c2ccc(Cl)cc21 [Compound A253]
- Percentage of AURKA Degradation Induced by 100 nM Compound in Jurkat Cells (AURKA; [1]): +++ (Degradation > 70%)
- Percentage of AURKA Degradation Induced by 1 µM Compound in Jurkat Cells (AURKA; [2]): +++ (Degradation > 70%)
- IC50 (H82 cells; [3]): < 1000 nM

Compound: O=C1CCN(c2ccc(N3CCC(OC4CN(c5ccc(Nc6ncc7c(n6)-c6ccc(Cl)cc6C(c6c(F)cccc6F)=NC7)cc5)C4)CC3)nc2)C(=O)N1 [Compound A254]
- Percentage of AURKA Degradation Induced by 100 nM Compound in Jurkat Cells (AURKA; [1]): +++ (Degradation > 70%)
- Percentage of AURKA Degradation Induced by 1 µM Compound in Jurkat Cells (AURKA; [2]): ++ (30% < Degradation ≤ 70%)
- IC50 (H82 cells; [3]): < 1000 nM

Compound: O=C1CCN(c2ccc(N3CCN(C(=O)N4CCN(C56CC(Nc7ncc8c(n7)-c7ccc(Cl)cc7C(c7c(F)cccc7F)=NC8)(C5)C6)CC4)CC3)nc2)C(=O)N1 [Compound A255]
- Percentage of AURKA Degradation Induced by 100 nM Compound in Jurkat Cells (AURKA; [1]): ++ (30% < Degradation ≤ 70%)
- Percentage of AURKA Degradation Induced by 1 µM Compound in Jurkat Cells (AURKA; [2]): ++ (30% < Degradation ≤ 70%)
- IC50 (H82 cells; [3]): < 1000 nM

Compound: COc1cc(Nc2ncc3c(n2)-c2ccc(Cl)cc2C(c2c(F)cccc2OC)=NC3)ccc1N1CCN(C2CCN(c3ccc(N4CCC(=O)NC4=O)cn3)CC2)CC1 [Compound A256]
- Percentage of AURKA Degradation Induced by 100 nM Compound in Jurkat Cells (AURKA; [1]): +++ (Degradation > 70%)
- Percentage of AURKA Degradation Induced by 1 µM Compound in Jurkat Cells (AURKA; [2]): +++ (Degradation > 70%)
- IC50 (H82 cells; [3]): < 1000 nM

Compound: O=C1CCN(c2ccc(N3CCN(C(=O)N4CCN(c5ccc(Nc6ncc7c(n6)-c6ccc(Cl)cc6C(c6c(F)cccc6F)=NC7)cc5)CC4)CC3)nc2)C(=O)N1 [Compound A258]
- Percentage of AURKA Degradation Induced by 100 nM Compound in Jurkat Cells (AURKA; [1]): +++ (Degradation > 70%)
- Percentage of AURKA Degradation Induced by 1 µM Compound in Jurkat Cells (AURKA; [2]): +++ (Degradation > 70%)
- IC50 (H82 cells; [3]): < 1000 nM

Compound: O=C1CCN(c2ccc(N3CCN(CC4(F)CN(c5ccc(Nc6ncc7c(n6)-c6ccc(Cl)cc6C(c6c(F)cccc6F)=NC7)cc5)C4)CC3)nc2)C(=O)N1 [Compound A259]
- Percentage of AURKA Degradation Induced by 100 nM Compound in Jurkat Cells (AURKA; [1]): +++ (Degradation > 70%)
- Percentage of AURKA Degradation Induced by 1 µM Compound in Jurkat Cells (AURKA; [2]): +++ (Degradation > 70%)
- IC50 (H82 cells; [3]): < 1000 nM

Compound: COc1cc(Nc2ncc3c(n2)-c2ccc(Cl)cc2C(c2c(F)cccc2OC)=NC3)ccc1N1CC(CN2CCN(c3ccc(N4CCC(=O)NC4=O)cn3)CC2)C1 [Compound A261]
- Percentage of AURKA Degradation Induced by 100 nM Compound in Jurkat Cells (AURKA; [1]): +++ (Degradation > 70%)
- Percentage of AURKA Degradation Induced by 1 µM Compound in Jurkat Cells (AURKA; [2]): +++ (Degradation > 70%)
- IC50 (H82 cells; [3]): < 1000 nM

Compound: O=C1CCN(c2ccc(N3CCC(N4CCN(c5ccc(Nc6ncc7c(n6)-c6ccc(Cl)cc6C(c6c(F)cccc6F)=NC7)cc5)CC4)C(F)(F)C3)nc2)C(=O)N1 (stereo not drawn) [Compound A263]
- Percentage of AURKA Degradation Induced by 100 nM Compound in Jurkat Cells (AURKA; [1]): +++ (Degradation > 70%)
- Percentage of AURKA Degradation Induced by 1 µM Compound in Jurkat Cells (AURKA; [2]): +++ (Degradation > 70%)
- IC50 (H82 cells; [4]): < 1000 nM

Compound: O=C1CCN(c2ccc(N3CCC(O)(CN4CCN(c5ccc(Nc6ncc7c(n6)-c6ccc(Cl)cc6C(c6c(F)cccc6F)=NC7)cc5)CC4)CC3)nc2)C(=O)N1 [Compound A264]
- Percentage of AURKA Degradation Induced by 100 nM Compound in Jurkat Cells (AURKA; [1]): +++ (Degradation > 70%)
- Percentage of AURKA Degradation Induced by 1 µM Compound in Jurkat Cells (AURKA; [2]): +++ (Degradation > 70%)
- IC50 (H82 cells; [3]): < 1000 nM

Compound: O=C1CCN(c2ccc(N3CCC4(CCN(C(=O)C56CC(Nc7ncc8c(n7)-c7ccc(Cl)cc7C(c7c(F)cccc7F)=NC8)(C5)C6)CC4)CC3)nc2)C(=O)N1 [Compound A265]
- Percentage of AURKA Degradation Induced by 100 nM Compound in Jurkat Cells (AURKA; [1]): + (Degradation ≤ 30%)
- Percentage of AURKA Degradation Induced by 1 µM Compound in Jurkat Cells (AURKA; [2]): + (Degradation ≤ 30%)
- IC50 (H82 cells; [3]): < 1000 nM

Compound: O=C1CCN(c2ccc(N3CC(N4CCN(Cc5ccc(Nc6ncc7c(n6)-c6ccc(Cl)cc6C(c6c(F)cccc6F)=NC7)cc5)C(=O)C4)C3)nc2)C(=O)N1 [Compound A267]
- Percentage of AURKA Degradation Induced by 100 nM Compound in Jurkat Cells (AURKA): ++ (key: +: Degradation ≤ 30%; ++: 30% < Degradation ≤ 70%; +++: Degradation > 70%)
- Percentage of AURKA Degradation Induced by 1 µM Compound in Jurkat Cells (AURKA): +++ (key: +: Degradation ≤ 30%; ++: 30% < Degradation ≤ 70%; +++: Degradation > 70%)
- IC50 (H82 cells; [4]): < 1000 nM
